Source: US20030003517A1, “Methods of detecting dissociated nuclear hormone receptor ligands” (priority 2001, published 2003)
Positions count from the first letter of the chain named.

Tests used:
[1] = molecular target: T1, RARα/RXRα heterodimer bound to a DR-5 retinoic acid receptor response element (RARE) (Homo sapiens, UniProt P10276); assay: DNA dependent coregulator recruitment assay (ternary complex immunoprecipitation from transfected CV-1 whole cell extracts); assay type: biochemical; conditions: for ligand mediated dissociation of N-CoR: wild type RARα ternary complex; for SRC-1 recruitment to the wild type ternary complex: wild type RARα/RXRα, FIG. 1, FIG. 5B
T1 construct: expressed in transfected cells; host or cells: CV-1 cells, transient transfection; whole cell extract
T1 sequence (P10276 1-462): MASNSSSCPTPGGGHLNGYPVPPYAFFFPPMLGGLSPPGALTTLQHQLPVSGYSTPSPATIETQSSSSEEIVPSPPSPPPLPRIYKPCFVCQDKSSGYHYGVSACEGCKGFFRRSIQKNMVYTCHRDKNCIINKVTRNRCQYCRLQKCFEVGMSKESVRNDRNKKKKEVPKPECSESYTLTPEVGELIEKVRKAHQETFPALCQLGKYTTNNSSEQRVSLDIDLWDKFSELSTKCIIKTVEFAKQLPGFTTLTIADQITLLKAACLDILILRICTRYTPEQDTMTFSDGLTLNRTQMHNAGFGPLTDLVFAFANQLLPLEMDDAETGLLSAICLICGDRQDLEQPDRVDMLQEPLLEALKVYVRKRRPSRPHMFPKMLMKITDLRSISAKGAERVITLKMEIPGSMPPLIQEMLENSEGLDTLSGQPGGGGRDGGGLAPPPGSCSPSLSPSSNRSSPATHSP
T1 sequence (P19793 1-462 partner): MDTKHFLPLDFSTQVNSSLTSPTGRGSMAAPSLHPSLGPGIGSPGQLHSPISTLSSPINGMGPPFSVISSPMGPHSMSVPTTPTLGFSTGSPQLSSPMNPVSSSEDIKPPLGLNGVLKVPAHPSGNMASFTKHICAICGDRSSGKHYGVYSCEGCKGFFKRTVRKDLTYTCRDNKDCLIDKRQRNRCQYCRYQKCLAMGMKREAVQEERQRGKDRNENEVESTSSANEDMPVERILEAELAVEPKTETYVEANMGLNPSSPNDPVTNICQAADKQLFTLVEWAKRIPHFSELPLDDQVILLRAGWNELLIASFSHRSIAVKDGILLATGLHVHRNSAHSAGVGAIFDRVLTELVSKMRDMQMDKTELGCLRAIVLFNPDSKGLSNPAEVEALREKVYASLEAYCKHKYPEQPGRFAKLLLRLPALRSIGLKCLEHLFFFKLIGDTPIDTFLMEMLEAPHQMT
Protocol: Cells were transfected and cell extracts prepared essentially as follows. For whole cell extracts, CV-1 cells were cultured with D-MEM (Gibco-BRL Life Technologies; Rockville, Md.) containing 10% activated charcoal extracted fetal bovine serum (Gemini Bio-Products). At a density of 40˜60% (15-cm plate, Falcon; Fort Worth, Tex.), cells were transiently transfected with 15 μl FuGene 6 Transfection Reagent (Roche Diagnostics) with 0.5 ug of pRS-RXRα, and 5 ug of either pcDNA3.1-hRARα-V5, pcDNA3.1-hRARβ-V5 or pcDNA3.1-hRARγ-V5 per plate. After two days, cells were rinsed twice with PBS and lysed in cold NET buffer (20 mM Tris-Cl [pH8.0], 200 mM NaCl, 1 mM EDTA, 0.1% NP-40, 10% glycerol) containing protease inhibitors, homogenized by QIAshredder (Qiagen; Valencia, Calif.), and clarified by centrifugation.
Immunoprecipitations and western analyses were performed as follows. CV-1 whole cell extract from transfected cells (1 mg) was used for each immunoprecipitation. Cell lysates were incubated with ligands on ice for 1 hour. […] After a 1 hour incubation on ice with primary antibody (mouse anti-V5, Invitrogen), protein G-agarose (SIGMA) was added and samples were rocked overnight at 4° C. […] Membranes were probed with the indicated antibodies in PBS-T buffer (PBS with 0.1% Tween-20) containing 5% nonfat dry milk, and washed in PBS-T buffer. Primary antibodies (#SC553, rabbit anti-RXRα; #SC1609, goat anti-N-CoR) were obtained from Santa Cruz Biotech and Affinity BioReagents (#MA1-840, mouse anti-SRC-1; Golden, Colo.).
The DNA dependent coregulator recruitment assay was used to measure the ability of RARα selective ligands shown in Table 2 to recruit the coactivators SRC-1 and ACTR to the RARα/RXRα heterodimer bound to a DR-5 retinoic acid receptor response element (RARE).

ER-RARα = ER-RARα chimeric receptor transactivation assay in transfected CV-1 cells (luciferase); assay type: cell-based; conditions: CV-1 cells transfected with ER-RARα; highest dose tested 1 μM; FIG. 3A
Protocol: (§1) RAR transactivation assays were performed essentially as previously described. For analysis of ER-RARα chimeric receptor transactivation, 5×10^3 CV-1 cells were plated per well of a 96-well microtiter plate and were transiently transfected with Lipofectamine and the indicated DNA. Specifically, transfections were performed with 0.1 μg of pERE-tk-Luc reporter, which contains the estrogen regulated element of the Xenopus vittelogenin A2 gene inserted into the plasmid tk-Luciferase, and 0.01 μg of the SV-40 based vector pECE carrying a chimeric ER-RAR receptor consisting of the estrogen receptor A/B and DNA binding domains fused to the DEF domain of RARα, β or γ. Alternatively, cells were cotransfected with the reporter plasmid MTV-4 (R5G)-Luciferase together with the plasmid pRS-hRXRα and either pRS-RARα-P-GR, pcDNA3-RARβ-P-GR, or pcDNA3-RARγ-P-GR as previously described (Klein et al., J. Biol. Chem. 271:22692-22696 (1996)). After eighteen hours, cells were rinsed with phosphate buffered saline (PBS) and fed with D-MEM (Gibco-BRL) containing 10% activated charcoal extracted fetal bovine serum (Gemini Bio-Products). Cells were treated with retinoids for 18 hours after which they were lysed; luciferase activity was measured as previously described, with luciferase values representing the mean±SEM of quadruplicate determinations.

RARα(R272-A)-P-GR = RARα(R272-A)-P-GR retinoid reporter transactivation in CV-1 cells; assay type: cell-based; conditions: FIG. 4
Protocol: RAR transactivation assays were performed essentially as previously described. For analysis of ER-RARα chimeric receptor transactivation, 5×10^3 CV-1 cells were plated per well of a 96-well microtiter plate and were transiently transfected with Lipofectamine and the indicated DNA. […] After eighteen hours, cells were rinsed with phosphate buffered saline (PBS) and fed with D-MEM (Gibco-BRL) containing 10% activated charcoal extracted fetal bovine serum (Gemini Bio-Products). Cells were treated with retinoids for 18 hours after which they were lysed; luciferase activity was measured as previously described, with luciferase values representing the mean±SEM of quadruplicate determinations.

[2] = system: RARα-P-GR (wild type RARα); assay: RARα-P-GR retinoid reporter transactivation in CV-1 cells; assay type: cell-based; conditions: FIG. 4
Protocol: as §1, with “After eighteen hours, cells were rinsed with phosphate buffered saline (PBS) and fed with D-MEM (Gibco-BRL) containing 10% activated charcoal extracted fetal bovine serum (Gemini Bio-Products).” left out
The RAR=60 R272-A mutant was analyzed for dominant negative activity using a retinoid reporter system responsive to transfected RARs recognizing RAREs containing a glucocorticoid receptor half-site (Klein et al., supra, 1996).

[3] = molecular target: T2, RARα R272-A containing ternary complex (Homo sapiens, UniProt P10276, R272A); assay: Ternary complex coregulator assay with RARα-V5 mutant R272-A; assay type: biochemical; conditions: 1 μM ligand; FIG. 2
T2 construct: expressed in transfected cells; host or cells: CV-1 cells, transient transfection; whole cell extract
T2 sequence (P10276 1-462 R272A): T1 sequence (P10276 1-462) with R272A
T2 sequence (P19793 1-462 partner): T1 sequence (P19793 1-462 partner)
Protocol: Immunoprecipitations and western analyses were performed as follows. CV-1 whole cell extract from transfected cells (1 mg) was used for each immunoprecipitation. Cell lysates were incubated with ligands on ice for 1 hour. […] After a 1 hour incubation on ice with primary antibody (mouse anti-V5, Invitrogen), protein G-agarose (SIGMA) was added and samples were rocked overnight at 4° C. […] Membranes were probed with the indicated antibodies in PBS-T buffer (PBS with 0.1% Tween-20) containing 5% nonfat dry milk, and washed in PBS-T buffer. […]

AP-1 = assay: Anti-AP1 assay: phorbol ester stimulated collagenase-promoter reporter containing an AP-1 response element; assay type: cell-based; conditions: for anti-AP-1 activity (antagonism of TPA stimulated collagenase reporter activity): FIG. 6
Protocol: The ability of AGN196382 to antagonize phorbol ester stimulated transcription was assayed using a collagenase-promoter reporter construct containing an AP-1 response element. […] Specifically, detection of anti-AP-1 activity by AGN196382 was only detectable at doses greater than 10 μM; similarly, detection of SRC-1 recruitment to the ternary complex by 196382 was apparent only at doses greater than 10 μM. Such elevated doses of AGN196382, while sufficient for efficacious anti-AP-1 activity, are not sufficient for efficient transcriptional activation of RARα.

[4] = molecular target: RARα/RXRα heterodimer (wild type RARα-V5 with RXRα) in the RAR/RXR/DNA ternary complex (human) (UniProt P19793); assay: co-immunoprecipitation of ternary complex, western blot; with 1 µM AGN196382, relative to 1 µM TTNPB
[5] = molecular target: RARα/RXRα heterodimer (wild type RARα-V5 with RXRα) in the RAR/RXR/DNA ternary complex (human) (UniProt P19793); assay: co-immunoprecipitation of ternary complex, western blot; with 1 µM AGN194794, relative to 1 µM TTNPB

Molecule | ligand mediated dissociation of N-CoR [1] | transactivation at RARα (ER-RARα) | p300 recruitment relative to TTNPB ([1]; ligands 1 μM, FIG. 3B) | SRC-1 recruitment to the wild type ternary complex [1] | anti-AP-1 activity (antagonism of TPA stimulated collagenase reporter activity) (AP-1) | further results
CC(C)c1cc(C(=O)Nc2ccc(C(=O)O)c(F)c2)c(O)c(C(C)C)c1 [AGN194365] | dissociation of N-CoR | potent and effective transactivation properties |  |  |  | SRC-1 recruitment compared to TTNPB ([1]; ligands 1 μM, FIG. 3B): 65%
CC12CCC(C)(CC1)c1c2cc(C(=O)Nc2cc(F)c(C(=O)O)c(F)c2)c(O)c1Br [AGN194794] | full N-CoR disengagement | activated RARα, albeit with slightly less efficacy and potency | 34% | essentially identical for the two ligands |  | ligand mediated dissociation of N-CoR ([1]; listed as 194794): dissociation of N-CoR
CCOc1c(C(C)C)cc(C(=O)Nc2cc(F)c(C(=O)O)c(F)c2)cc1C(C)C [AGN196382] | nearly absent | no activity at RARα except at the highest dose (1 μM) tested | 30% | essentially identical for the two ligands | similarly efficacious | activation of RARα(R272-A) (RARα(R272-A)-P-GR): not activated at all; activation of wild type RARα [2]: significantly reduced relative to TTNPB; dose at which SRC-1 recruitment to the ternary complex is apparent [1]: greater than 10 μM; ligand mediated dissociation of N-CoR ([1]; listed as 196382): significantly impaired; SRC-1 recruitment to RARα R272-A ternary complex [3]: lack of recruitment of SRC-1; dose at which anti-AP-1 activity is detectable (AP-1): greater than 10 μM
CCOc1c(C2CC2)cc(C(=O)Nc2cc(F)c(C(=O)O)c(F)c2)cc1C(C)(C)C [AGN196412] | significantly impaired | no activity at RARα except at the highest dose (1 μM) tested |  |  |  | ACTR recruitment compared to TTNPB ([1]; ligands 1 μM, FIG. 3B): 65%
C/C(=C\c1ccc(C(=O)O)cc1)c1ccc2c(c1)C(C)(C)CCC2(C)C [TTNPB, reference compound] |  |  |  |  | potent and efficacious anti-AP-1 activity | 
p300 (coactivator p300/CBP) (from UniProt Q09472 2-2414) |  |  |  |  |  | % recruitment relative to TTNPB [4]: 30%; % recruitment relative to TTNPB [5]: 34%
